Reference: PMC8162746 (Cancer chemotherapy and pharmacology, 2021)
Values joined by “and” are separate entries in the source; they are usually repeats but may differ in a detail not shown here. Equal entries are not always repeated. “Also recorded” adds a separate entry of the source.

Key:
[1] = tested on: Burkitt lymphoma mouse models; conditions: cited from earlier work
[2] = Plasma pharmacokinetics, LC-MS/MS, non-compartmental analysis; assay type: in vivo, human; conditions: for AUC / Cmax: oral; for AUC: Median AUC; for Cmax: Median Cmax
[3] = tested on: xenograft and allograft schwannoma; conditions: cited from earlier work
[4] = tested on: primary CNS and advanced solid tumors; experiment: Phase I trial: response evaluation; assay type: in vivo, human
[5] = tested on: patients with multiple myeloma and T- and B-cell lymphomas; conditions: cited from earlier work
[6] = tested on: schwannoma and meningioma cell lines; conditions: cited from earlier work
[7] = tested on: patients with primary CNS and advanced solid tumors; experiment: Phase I dose-escalation trial of oral AR-42: safety and tolerability; assay type: in vivo
[8] = human, plasma, patients without grade 3 or 4 toxicity
[9] = 17 patients evaluable for toxicity

Question: For `CC(C)[C@H](C(=O)Nc1ccc(C(=O)NO)cc1)c1ccccc1` [AR-42], which “Activity compared with vorinostat” value [1] is on record?
Answer: Its value is “superior to that of vorinostat”.

Question: What about the Accumulation ([2]; 3 times weekly for three weeks of a four-week cycle) of the same compound?
Answer: Its Accumulation is “did not accumulate”.

Question: And the “Cmax, AUC0–24 and AUC0–∞ between Day 1 and Day 19” value ([2]; cycle 1)?
Answer: Its value is “remained consistent”.

Question: And the AUC ([2]; human, plasma, patients with a grade 3 or 4 toxicity during cycle 1 and 2, p=0.036)?
Answer: The AUC was 16.4 µM·h.

Question: What about the AUC [2, 8] of the same compound?
Answer: The AUC was 11.3 µM·h.

Question: What about the Cmax ([2]; human, plasma, patients with a grade 3 or 4 toxicity during cycle 1 and 2, p=0.0016) of the same compound?
Answer: Its Cmax is 1540 nM.

Question: And the Cmax [2, 8]?
Answer: Its Cmax is 1040 nM.

Question: And the half-life ([2]; human, plasma, po)?
Answer: The half-life was 8 to 13 h.

Question: And the “AUC0–24 and AUC0–∞ higher in 80 mg dose group compared to 60 mg dose group” value ([2]; only two patients at 80 mg)?
Answer: Its value is “roughly 50%”.

Question: What about the “Median CL/F” value ([2]; patients with a grade 3 or 4 toxicity during cycle 1 and 2, p=0.0745) of the same compound?
Answer: Its value is 10.48 L/h.

Question: And the “Median CL/F” value ([2]; patients without grade 3 or 4 toxicity)?
Answer: Its value is 15.8 L/h.

Question: What about the Schwannoma growth [3] of the same compound?
Answer: The Schwannoma growth was “suppressed peripherally implanted xenograft and allograft schwannoma growth”.

Question: What about the Stable disease ([4]; 30 mg) of the same compound?
Answer: Its Stable disease is 1 of 3.

Question: What about the Stable disease ([4]; 60 mg) of the same compound?
Answer: Its Stable disease is 7 of 11.

Question: What about the “Follow up without progression” value ([4]; 1 of 5 patients with NF2 or meningioma) of the same compound?
Answer: Its value is greater than 27 months.

Question: And the “Best response stable disease, proportion of patients” value ([4]; 15 evaluable patients, 95% CI 26.6–78.7)?
Answer: Its value is 53%.

Question: And the Stable disease ([4]; all evaluable patients)?
Answer: Its Stable disease is 8 of 15.

Question: And the “Median PFS” value ([4]; evaluable NF2 or meningioma (n=5), 60 mg, 95% CI 1.9-not reached)?
Answer: Its value is 9.1 months.

Question: What about the “Median PFS” value ([4]; non-CNS solid tumors (n=10), 95% CI 0.1–5.0) of the same compound?
Answer: The value was 1.7 months.

Question: What about the “Median PFS” value ([4]; overall cohort, 95% CI 1.2–9.1) of the same compound?
Answer: The value was 3.6 months.

Question: What about the “Mean QTc change” value ([5]; patients with grade 1 QTc prolongation) of the same compound?
Answer: Its value is 27.4 ms.

Question: And the “Grade 1 QTc prolongation” value ([5]; phase I study in hematologic malignancies)?
Answer: Its value is 8 of 27.

Question: And the Thrombocytopenia ([5]; phase I trial in hematologic malignancies)?
Answer: The Thrombocytopenia was 16 of 27.

Question: And the “Maximum tolerated dose (MTD)” value ([5]; three times weekly for three weeks of a 28-day cycle)?
Answer: The value was 40 mg.

Question: And the “Proliferation of schwannoma and meningioma cell lines” value ([6]; cell cycle arrest at G2 and apoptosis)?
Answer: Its value is “suppressed proliferation”.

Question: What about the AKT phosphorylation [6] of the same compound?
Answer: Its AKT phosphorylation is “decreased AKT phosphorylation”.

Question: And the Treatment-related deaths ([7]; 17 patients)?
Answer: Its Treatment-related deaths is “no treatment-related deaths”.

Question: And the “Grade 3 TRAE anemia” value [7, 9]?
Answer: The value was 2 n.

Question: And the “Grade 3 TRAE anorexia” value [7, 9]?
Answer: Its value is 1 n.

Question: And the “Grade 3 TRAE hematuria” value [7, 9]?
Answer: The value was 1 n.

Question: And the “Grade 3 TRAE hypophosphatemia” value [7, 9]?
Answer: Its value is 3 n.

Question: What about the “Grade 3 TRAE lymphopenia” value [7, 9] of the same compound?
Answer: The value was 3 n.

Question: What about the “Grade 3 TRAE nausea” value [7, 9] of the same compound?
Answer: The value was 2 n.

Question: What about the “Grade 3 TRAE thrombocytopenia” value [7, 9] of the same compound?
Answer: Its value is 5 n.

Question: What about the “Grade 3 TRAE venous thromboembolism” value [7, 9] of the same compound?
Answer: The value was 1 n.

Question: And the “Grade 3 TRAE weight loss” value [7, 9]?
Answer: The value was 1 n.

Question: And the “Cardiac toxicity observed (QTc prolongation)” value ([7]; 17 patients, event at 30 mg)?
Answer: The value was “one patient with a grade 1 QTc prolongation; also recorded: one patient who experienced a grade 1 QTc prolongation”.

Question: What about the “Anemia, treatment-related adverse event, All grades” value ([7]; N=17, 30-80 mg) of the same compound?
Answer: The value was 10 n (%) and 10 (58.8%) n (%).

Question: What about the “Anemia, treatment-related adverse event, Grade 1–2” value ([7]; N=17, 30-80 mg) of the same compound?
Answer: The value was 8 (47.1%) n (%).

Question: And the “Anemia, treatment-related adverse event, Grade 3–4” value ([7]; N=17, 30-80 mg)?
Answer: The value was 2 (11.8%) n (%).

Question: And the “Anorexia, treatment-related adverse event, All grades” value ([7]; N=17, 30-80 mg)?
Answer: The value was 5 (29.4%) n (%).

Question: What about the “Anorexia, treatment-related adverse event, Grade 1–2” value ([7]; N=17, 30-80 mg) of the same compound?
Answer: The value was 4 (23.5%) n (%).

Question: And the “Anorexia, treatment-related adverse event, Grade 3–4” value ([7]; N=17, 30-80 mg)?
Answer: The value was 1 (5.9%) n (%).

Question: What about the “Constipation, treatment-related adverse event, All grades” value ([7]; N=17, 30-80 mg) of the same compound?
Answer: The value was 4 (23.5%) n (%).

Question: What about the “Constipation, treatment-related adverse event, Grade 1–2” value ([7]; N=17, 30-80 mg) of the same compound?
Answer: The value was 4 (23.5%) n (%).

Question: And the “Cough, treatment-related adverse event, All grades” value ([7]; N=17, 30-80 mg)?
Answer: The value was 2 (11.8%) n (%).

Question: And the “Cough, treatment-related adverse event, Grade 1–2” value ([7]; N=17, 30-80 mg)?
Answer: Its value is 2 (11.8%) n (%).

Question: And the “Dehydration, treatment-related adverse event, All grades” value ([7]; N=17, 30-80 mg)?
Answer: Its value is 2 (11.8%) n (%).

Question: What about the “Dehydration, treatment-related adverse event, Grade 1–2” value ([7]; N=17, 30-80 mg) of the same compound?
Answer: The value was 2 (11.8%) n (%).

Question: What about the “Diarrhea, treatment-related adverse event, All grades” value ([7]; N=17, 30-80 mg) of the same compound?
Answer: The value was 6 n (%) and 6 (35.3%) n (%).

Question: And the “Diarrhea, treatment-related adverse event, Grade 1–2” value ([7]; N=17, 30-80 mg)?
Answer: The value was 6 (35.3%) n (%).

Question: And the “Dizziness, treatment-related adverse event, All grades” value ([7]; N=17, 30-80 mg)?
Answer: The value was 4 (23.5%) n (%).

Question: And the “Dizziness, treatment-related adverse event, Grade 1–2” value ([7]; N=17, 30-80 mg)?
Answer: Its value is 4 (23.5%) n (%).

Question: And the “Dry mouth, treatment-related adverse event, All grades” value ([7]; N=17, 30-80 mg)?
Answer: The value was 3 (17.6%) n (%).

Question: And the “Dry mouth, treatment-related adverse event, Grade 1–2” value ([7]; N=17, 30-80 mg)?
Answer: Its value is 3 (17.6%) n (%).

Question: What about the “Dysgeusia, treatment-related adverse event, All grades” value ([7]; N=17, 30-80 mg) of the same compound?
Answer: The value was 3 (17.6%) n (%).

Question: And the “Dysgeusia, treatment-related adverse event, Grade 1–2” value ([7]; N=17, 30-80 mg)?
Answer: The value was 3 (17.6%) n (%).

Question: And the “Elevated alkaline phosphatase, treatment-related adverse event, All grades” value ([7]; N=17, 30-80 mg)?
Answer: The value was 4 (23.5%) n (%).

Question: And the “Elevated alkaline phosphatase, treatment-related adverse event, Grade 1–2” value ([7]; N=17, 30-80 mg)?
Answer: The value was 4 (23.5%) n (%).

Question: And the “Elevated creatinine, treatment-related adverse event, All grades” value ([7]; N=17, 30-80 mg)?
Answer: The value was 8 n (%) and 8 (47.1%) n (%).

Question: What about the “Elevated creatinine, treatment-related adverse event, Grade 1–2” value ([7]; N=17, 30-80 mg) of the same compound?
Answer: The value was 8 (47.1%) n (%).

Question: And the “Fatigue, treatment-related adverse event, All grades” value ([7]; N=17, 30-80 mg)?
Answer: Its value is 11 (64.7%) n (%).

Question: What about the “Fatigue, treatment-related adverse event, Grade 1–2” value ([7]; N=17, 30-80 mg) of the same compound?
Answer: The value was 11 (64.7%) n (%).

Question: What about the “Headache, treatment-related adverse event, All grades” value ([7]; N=17, 30-80 mg) of the same compound?
Answer: Its value is 3 (17.6%) n (%).

Question: What about the “Headache, treatment-related adverse event, Grade 1–2” value ([7]; N=17, 30-80 mg) of the same compound?
Answer: The value was 3 (17.6%) n (%).

Question: What about the “Hematuria, treatment-related adverse event, All grades” value ([7]; N=17, 30-80 mg) of the same compound?
Answer: Its value is 1 (5.9%) n (%).
